According to ChEMBL document CHEMBL5046309, “Discovery of SHR5133, a Highly Potent and Novel HBV Capsid Assembly Modulator” (ACS Med Chem Lett, 2022):
The source made the active and inactive calls. No cut-off for these calls is given here.

Assays:
HepG2 2.2.15 = assay: Cytotoxicity against human HepG2.2.15 cells assessed as reduction in cell viability incubated for 72 hrs by cell titer-glo assay; assay type: functional
[1] = Clearance in Sprague-Dawley rat at 1 mg/kg, iv measured up to 24 hrs by LC-MS/MS analysis; assay type: ADME, organism-based; settings: in vivo
[2] = AUC(0 to 24 hrs) in Sprague-Dawley rat at 2 mg/kg, po measured up to 24 hrs by LC-MS/MS analysis; assay type: ADME, organism-based; parameters: route oral, dose 2 mg/kg, time <=24; settings: in vivo
[3] = Cmax in Sprague-Dawley rat at 2 mg/kg, po measured up to 24 hrs by LC-MS/MS analysis; assay type: ADME, organism-based; parameters: route oral, dose 2 mg/kg, time <=24; settings: in vivo
[4] = Half life in Sprague-Dawley rat at 2 mg/kg, po measured up to 24 hrs by LC-MS/MS analysis; assay type: ADME, organism-based; settings: in vivo

C[C@H]1Cn2cnc(C(=O)N[C@H](C)C(F)(F)F)c2CN1C(=O)Nc1cc(F)nc(F)c1
CC50 (HepG2 2.2.15): > 100 µM

C[C@@H]1Cn2cnc(C(=O)N[C@H](C)C(F)(F)F)c2CN1C(=O)Nc1ccc(F)c(F)c1
CC50 (HepG2 2.2.15): > 100 µM

C[C@H]1Cn2ncc(C(=O)N[C@H](C)C(F)(F)F)c2CN1C(=O)Nc1ccc(F)c(C#N)c1
CC50 (HepG2 2.2.15): > 100 µM

C[C@H]1Cn2ncc(C(=O)N[C@H](C)C(F)(F)F)c2CN1C(=O)Nc1ccc(F)c(F)c1
CC50 (HepG2 2.2.15): > 100 µM

Cc1cc(NC(=O)N2Cc3c(C(=O)N[C@H](C)C(F)(F)F)ncn3C[C@@H]2C)ccc1F
clearance [1]: 1.6 L/h/kg | CC50 (HepG2 2.2.15): > 100 µM | AUC [2]: 2.12 µg/mL/h | Cmax [3]: 0.492 µg/mL | half-life [4]: 3.87 h

C[C@H](NC(=O)c1ncn2c1CN(C(=O)Nc1ccc(F)c(C#N)c1)[C@@H](C)C2)C(F)(F)F
Activity (HepG2 2.2.15): inactive
